Reference: ChEMBL document CHEMBL5236578, “Structure-activity relationship study of 4,5-didehydroguadiscine, an aporphine alkaloid showing potent melanogenesis-inhibitory activity in B16 melanoma cells” (Bioorg Med Chem Lett, 2022)
Where a name gives a salt, the structure may show the parent alone.

Assay: Potency index, ratio of arbutin IC50 to test compound IC50 for anti-melanogenic activity in theophylline-stimulated mouse B16 melanoma 4A5 cells assessed as inhibition of melanogenesis
Format: functional
In the case of `COc1ccc2c(c1)C(C)(C)c1nccc3cc4c(c-2c13)OCO4`, the “Ratio IC50” value is reported as 40.

Assay: Anti-melanogenic activity in theophylline-stimulated mouse B16 melanoma 4A5 cells assessed as inhibition of melanogenesis
Format: functional, cell-based
`COc1ccc2ccnc3c2c1-c1ccccc1C3(C)C` gave an IC50 of 4 µM. Work on `CC1(C)c2ccccc2-c2c3c(cc4ccnc1c24)OCO3` yielded an IC50 of 6.7 µM. With `CC(C)(c1ccccc1)c1nccc2ccccc12` the IC50 was > 30 µM. For `CC(C)(c1ccccc1)c1nccc2cc3c(cc12)OCO3`, the IC50 was > 30 µM. For `COc1cccc(C(C)(C)c2nccc3cc(OC)ccc23)c1`, the IC50 was > 30 µM. `COc1cc2c3c(nccc3c1)C(C)(C)c1ccccc1-2` showed an IC50 of 5 µM. In the case of `COc1cc2c(cc1OC)[C@@H](Cc1ccc(O)cc1)N(C)CC2`, the IC50 is reported as 6.5 µM. With `OC[C@H]1O[C@@H](Oc2ccc(O)cc2)[C@H](O)[C@@H](O)[C@@H]1O` [ARBUTIN] the IC50 was 174 µM. `COc1ccc2c(c1)C(C)(C)c1nccc3cc(OC)cc-2c13` gave an IC50 of 7.5 µM. Work on `COc1ccc2c(c1)C(C)(C)c1nccc3cc4c(c-2c13)OCO4` yielded an IC50 of 4.9 µM. For `COc1cccc(C(C)(C)c2nccc3cc4c(cc23)OCO4)c1`, the IC50 was > 30 µM. With `COc1ccc2c(C(C)(C)c3ccccc3)nccc2c1` the IC50 was > 30 µM. Compound `CC1(C)c2ccccc2-c2cccc3ccnc1c23` has an IC50 of 3.1 µM. Compound `COc1cc2c3c(c1OC)-c1ccccc1C[C@H]3N(C)CC2` [NUCIFERINE HYDROCHLORIDE] has an IC50 of 7.1 µM. In the case of `COc1ccc2ccnc(C(C)(C)c3ccccc3)c2c1`, the IC50 is reported as 18.1 µM.
